Assay results as given in PubChem BioAssay AID2060513 (Molecular Pharmacology Branch, DTP, NCI, 2025).

Test system: 299254-011-R-J1-PDC complex spheroids viability
Assay: Anticancer human tumor 299254-011-R-J1-PDC patient-derived melanoma cell line growth inhibition [GQUAD]
Settings: for IC50: curve of first compound; for viability, T/C: stronger effect = lower value
Outline: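 Multi-cell-type spheroids of tumor cells with HUVEC and mesenchymal stem cells, treated with drug combinations. Concentrations descend in half-log steps from near clinical Cmax, or from 10 microM where Cmax is unknown; viability read-out.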

[1] = second compound 0.0316 µM, first compound 0.0316 µM
[2] = second compound 0.0316 µM, first compound 0.1 µM
[3] = second compound 0.0316 µM, first compound 0.316 µM
[4] = second compound 0.0316 µM, first compound 1 µM
[5] = second compound 0.0316 µM, first compound 3.16 µM
[6] = second compound 0.0316 µM, first compound 10 µM
[7] = second compound 0.1 µM, first compound 0.0316 µM
[8] = second compound 0.1 µM, first compound 0.1 µM
[9] = second compound 0.1 µM, first compound 0.316 µM
[10] = second compound 0.1 µM, first compound 1 µM
[11] = second compound 0.1 µM, first compound 3.16 µM
[12] = second compound 0.1 µM, first compound 10 µM
[13] = second compound 0.316 µM, first compound 0.0316 µM
[14] = second compound 0.316 µM, first compound 0.1 µM
[15] = second compound 0.316 µM, first compound 0.316 µM
[16] = second compound 0.316 µM, first compound 1 µM
[17] = second compound 0.316 µM, first compound 3.16 µM
[18] = second compound 0.316 µM, first compound 10 µM
[19] = second compound 1 µM, first compound 0.0316 µM
[20] = second compound 1 µM, first compound 0.1 µM
[21] = second compound 1 µM, first compound 0.316 µM
[22] = second compound 1 µM, first compound 1 µM
[23] = second compound 1 µM, first compound 3.16 µM
[24] = second compound 1 µM, first compound 10 µM
[25] = second compound 3.16 µM, first compound 0.0316 µM
[26] = second compound 3.16 µM, first compound 0.1 µM
[27] = second compound 3.16 µM, first compound 0.316 µM
[28] = second compound 3.16 µM, first compound 1 µM
[29] = second compound 3.16 µM, first compound 3.16 µM
[30] = second compound 3.16 µM, first compound 10 µM
[31] = second compound 10 µM, first compound 0.0316 µM
[32] = second compound 10 µM, first compound 0.1 µM
[33] = second compound 10 µM, first compound 0.316 µM
[34] = second compound 10 µM, first compound 1 µM
[35] = second compound 10 µM, first compound 3.16 µM
[36] = second compound 10 µM, first compound 10 µM
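Note: spheroids exposed to the agents for seven days before readout.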
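Throughout, for viability, T/C: percent viability relative to DMSO vehicle control wells = 100%.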

COc1ncnc(C2CC2)c1-c1ncc2cnn(Cc3ccc(-c4nc(C(F)(F)F)cn4C(C)C)cc3)c2n1 + CN(C)c1ccc(Nc2c3ccc(NC(=O)CCN4CCCC4)cc3nc3cc(NC(=O)CCN4CCCC4)ccc23)cc1
IC50 (second compound 0.0316 µM): > 10 µM | IC50 (second compound 0.1 µM): > 10 µM | IC50 (second compound 0.316 µM): > 10 µM | IC50 (second compound 1 µM): > 10 µM | IC50 (second compound 3.16 µM): > 10 µM | IC50 (second compound 10 µM): > 10 µM | viability, T/C [1]: 92.6% | viability, T/C [2]: 78.1% | viability, T/C [3]: 106% | viability, T/C [4]: 98.3% | viability, T/C [5]: 101% | viability, T/C [6]: 88% | viability, T/C [7]: 102% | viability, T/C [8]: 97.3% | viability, T/C [9]: 114% | viability, T/C [10]: 96.3% | viability, T/C [11]: 97.4% | viability, T/C [12]: 121% | viability, T/C [13]: 101% | viability, T/C [14]: 103% | viability, T/C [15]: 92.2% | viability, T/C [16]: 99.4% | viability, T/C [17]: 101% | viability, T/C [18]: 117% | viability, T/C [19]: 117% | viability, T/C [20]: 77% | viability, T/C [21]: 98.6% | viability, T/C [22]: 98.6% | viability, T/C [23]: 99.8% | viability, T/C [24]: 107% | viability, T/C [25]: 86.9% | viability, T/C [26]: 99.8% | viability, T/C [27]: 86.5% | viability, T/C [28]: 105% | viability, T/C [29]: 113% | viability, T/C [30]: 104% | viability, T/C [31]: 93.3% | viability, T/C [32]: 110% | viability, T/C [33]: 96.2% | viability, T/C [34]: 79.4% | viability, T/C [35]: 89.5% | viability, T/C [36]: 93.7%

CC(C)n1c(=O)n(C)c2cnc3cc(F)c(-c4ccc(OCCCN5CCCCC5)nc4)cc3c21 + Cc1[nH]c2ccc(F)cc2c1-c1nc2c3cccnc3c3ncccc3c2[nH]1
IC50 (second compound 0.0316 µM): > 10 µM | IC50 (second compound 0.1 µM): > 10 µM | IC50 (second compound 0.316 µM): > 10 µM | IC50 (second compound 1 µM): > 10 µM | IC50 (second compound 3.16 µM): > 10 µM | IC50 (second compound 10 µM): 9.86 µM | viability, T/C [1]: 90.2% | viability, T/C [2]: 94.3% | viability, T/C [3]: 98.1% | viability, T/C [4]: 75.2% | viability, T/C [5]: 86.7% | viability, T/C [6]: 54.3% | viability, T/C [7]: 85.9% | viability, T/C [8]: 103% | viability, T/C [9]: 124% | viability, T/C [10]: 96.5% | viability, T/C [11]: 83.1% | viability, T/C [12]: 58.3% | viability, T/C [13]: 106% | viability, T/C [14]: 98.8% | viability, T/C [15]: 105% | viability, T/C [16]: 94.2% | viability, T/C [17]: 84.4% | viability, T/C [18]: 52.4% | viability, T/C [19]: 83% | viability, T/C [20]: 97.7% | viability, T/C [21]: 118% | viability, T/C [22]: 115% | viability, T/C [23]: 98.8% | viability, T/C [24]: 58.1% | viability, T/C [25]: 89.9% | viability, T/C [26]: 107% | viability, T/C [27]: 89.5% | viability, T/C [28]: 111% | viability, T/C [29]: 94.4% | viability, T/C [30]: 56.9% | viability, T/C [31]: 96.8% | viability, T/C [32]: 107% | viability, T/C [33]: 98% | viability, T/C [34]: 84.8% | viability, T/C [35]: 96.8% | viability, T/C [36]: 49.5%

CC1COCCN1c1cc(C2(S(C)(=N)=O)CC2)nc(-c2ccnc3[nH]ccc23)n1 (stereo unspecified) + Cc1[nH]c2ccc(F)cc2c1-c1nc2c3cccnc3c3ncccc3c2[nH]1
IC50 (second compound 0.0316 µM): 2.91 µM | IC50 (second compound 0.1 µM): 5.58 µM | IC50 (second compound 0.316 µM): 4.71 µM | IC50 (second compound 1 µM): 4.53 µM | IC50 (second compound 3.16 µM): 3.17 µM | IC50 (second compound 10 µM): 2.46 µM | viability, T/C [1]: 105% | viability, T/C [2]: 86.6% | viability, T/C [3]: 110% | viability, T/C [4]: 67.8% | viability, T/C [5]: 53.6% | viability, T/C [6]: 31.8% | viability, T/C [7]: 85% | viability, T/C [8]: 95.9% | viability, T/C [9]: 100% | viability, T/C [10]: 87.4% | viability, T/C [11]: 64% | viability, T/C [12]: 35.8% | viability, T/C [13]: 78.7% | viability, T/C [14]: 96.4% | viability, T/C [15]: 114% | viability, T/C [16]: 87.9% | viability, T/C [17]: 64.2% | viability, T/C [18]: 24% | viability, T/C [19]: 91% | viability, T/C [20]: 90.3% | viability, T/C [21]: 96.1% | viability, T/C [22]: 111% | viability, T/C [23]: 59.4% | viability, T/C [24]: 29.3% | viability, T/C [25]: 108% | viability, T/C [26]: 99.2% | viability, T/C [27]: 97.7% | viability, T/C [28]: 97.1% | viability, T/C [29]: 50% | viability, T/C [30]: 18% | viability, T/C [31]: 127% | viability, T/C [32]: 83% | viability, T/C [33]: 97.5% | viability, T/C [34]: 92% | viability, T/C [35]: 38.3% | viability, T/C [36]: 14.1%
